Source: ChEMBL document CHEMBL1250510, “2,3-diarylxanthones as strong scavengers of reactive oxygen and nitrogen species: a structure-activity relationship study” (Bioorg Med Chem, 2010)
Active and inactive are the calls of the source. The calls are words filed in the database; no cut-off is given here.

Columns and labels:
Format in all cases: functional
[1] = Antioxidant activity assessed as singlet oxygen scavenging activity by spectrophotometry
[2] = Antioxidant activity assessed as hypocholrous acid scavenging activity by spectrophotometry
[3] = Antioxidant activity assessed as superoxide radical scavenging activity by spectrophotometry
[4] = Antioxidant activity assessed as hydrogen peroxide scavenging activity at 125 uM by spectrophotometry
[5] = Antioxidant activity assessed as singlet oxygen scavenging activity at 100 uM by spectrophotometry
[6] = Antioxidant activity assessed as peroxynitrite scavenging activity by spectrophotometry in presence of NaHCO3
[7] = Antioxidant activity assessed as nitric oxide scavenging activity by spectrophotometry
[8] = Antioxidant activity assessed as peroxynitrite scavenging activity by spectrophotometry in absence of NaHCO3
[9] = Antioxidant activity assessed as superoxide radical scavenging activity at 200 uM by spectrophotometry
[10] = Antioxidant activity assessed as peroxyl radical scavenging activity assessed as trolox equivalent by spectrophotometry
[11] = Antioxidant activity assessed as nitric oxide scavenging activity at 200 uM by spectrophotometry
[12] = Antioxidant activity assessed as hydrogen peroxide scavenging activity at 250 uM by spectrophotometry
[13] = Antioxidant activity assessed as hydrogen peroxide scavenging activity by spectrophotometry
[14] = Antioxidant activity assessed as peroxynitrite scavenging activity at 50 uM by spectrophotometry in presence of NaHCO3
[15] = Antioxidant activity assessed as superoxide radical scavenging activity at 25 uM by spectrophotometry
[16] = Antioxidant activity assessed as peroxyl radical scavenging activity assessed as trolox equivalent at 1 uM by spectrophotometry
[17] = Antioxidant activity assessed as peroxynitrite scavenging activity at 50 uM by spectrophotometry in absence of NaHCO3

IC50 [2] [nM] | IC50 [3] [nM] | IC50 [5] [nM] | IC50 [6] [nM] | IC50 [7] [nM] | IC50 [8] [nM] | SMILES | trolox equivalent [10] | inhibition [12] [%] | also measured
2300 | – | – | – | – | – | O=C(O)CCCC[C@@H](S)CCS [DIHYDROLIPOIC ACID] | – | – | –
53800 | – | 68800 | 2660 | – | 2000 | O=c1c2ccccc2oc2cc(-c3ccc(O)cc3)c(-c3ccccc3)cc12 | 2.08 | – | inhibition [11]: 41%; inhibition [4]: inactive; inhibition [9]: inactive
– | – | – | – | 2530 | – | C[C@@H]1O[C@@H](OC[C@H]2O[C@@H](Oc3c(-c4ccc(O)c(O)c4)oc4cc(O)cc(O)c4c3=O)[C@H](O)[C@@H](O)[C@@H]2O)[C@H](O)[C@H](O)[C@H]1O [RUTIN] | – | – | –
155000 | – | – | – | – | – | O=c1c2ccccc2oc2cc(-c3ccccc3)c(-c3ccccc3)cc12 | – | – | inhibition [11]: 39%; inhibition [4]: inactive; inhibition [5]: 27%; inhibition [14]: 29%; inhibition [15]: inactive; inhibition [16]: inactive; inhibition [17]: 48%
22400 | 166000 | 58400 | 1720 | 108000 | 970 | O=c1c2ccccc2oc2cc(-c3ccc(O)cc3)c(-c3ccc(O)cc3)cc12 | 2.88 | – | inhibition [4]: inactive
7500 | 31300 | 6800 | 220 | 620 | 890 | O=c1c2ccccc2oc2cc(-c3ccc(O)c(O)c3)c(-c3ccc(O)cc3)cc12 | 0.83 | 12 | –

The next lines start with the compound.

SMILES | IC50 [2] [nM] | IC50 [3] [nM] | IC50 [5] [nM] | IC50 [6] [nM] | IC50 [7] [nM] | IC50 [8] [nM] | trolox equivalent [10] | inhibition [12] [%] | also measured
O=c1c(O)c(-c2ccc(O)c(O)c2)oc2cc(O)cc(O)c12 [QUERCETIN] | – | – | – | – | – | – | – | – | IC50 [1]: 1800 nM
O=S(=O)(O)c1cc(O)c(O)c(S(=O)(=O)O)c1 [TIRON] | – | 273000 | – | – | – | – | – | – | –
O=c1c2ccccc2oc2cc(-c3ccccc3)c(-c3ccc(O)cc3)cc12 | 72100 | – | 80000 | 1550 | 175000 | 1800 | 1.05 | – | inhibition [4]: inactive; inhibition [9]: inactive
O=c1c2ccccc2oc2cc(-c3ccc(O)c(O)c3)c(-c3ccccc3)cc12 | 10800 | 76000 | 4500 | 370 | 1220 | 670 | 0.84 | 9 | –
O=C1O[C@H]([C@@H](O)CO)C(O)=C1O [ASCORBIC ACID] | – | – | – | – | – | – | – | – | IC50 [13]: 602000 nM; IC50 [10]: 220 nM
O=c1c2ccccc2oc2cc(-c3ccc(O)c(O)c3)c(-c3ccc(O)c(O)c3)cc12 | 1200 | 10400 | 2500 | 170 | 390 | 330 | 0.28 | 17 | –
O=c1c2ccccc2oc2cc(-c3ccccc3)c(-c3ccc(O)c(O)c3)cc12 | 15700 | 28100 | 6000 | 400 | 1880 | 540 | 0.76 | 9 | –
O=c1c2ccccc2oc2cc(-c3ccc(O)cc3)c(-c3ccc(O)c(O)c3)cc12 | 14700 | 20300 | 3300 | 260 | 420 | 780 | 0.88 | 14 | –
O=c1c2ccccc2[se]n1-c1ccccc1 [EBSELEN] | – | – | – | 500 | – | 2010 | – | – | –
